Experimental data from US20070160725A1, “Use of extracts and compounds of allium-genus plants as preservatives in the food and agri-food industries” (MOUSALA, S., L., priority 2004, published 2007).
Several values for one entry are separate records, joined by “and”; a condition that tells them apart may be missing. Equal entries are not always repeated.

Columns and labels:
[1] = tested on: Aspergillus niger, CECT 2700; test: agar diffusion, inhibition halo; type: cell-based
Description: (§1) In order to evaluate the antimicrobial activity the agar diffusion technique with cellulose discs of 6 mm in diameter impregnated with the different active ingredient testing doses was used.
(§2) Antifungal capacity was assessed against suspensions of […], harvested from pure cultures of the selected molds and against suspensions of 10^7 cells/ml for the case of yeasts. The culture medium used was the 2% Sabouraud-glucose medium (Merck).
(§3) After incubating the culture dishes inoculated with the different organisms at the corresponding temperatures, the microbial inhibition halos that appeared were measured, and said measurement includes the 6 mm diameter of the cellulose discs.

[2] = tested on: Aspergillus terreus, isolated from the environment of the cheese maturation chamber; test: agar diffusion, inhibition halo; type: cell-based
Description: as §1, §2, §3

[3] = tested on: Candida albicans, ATCC 10231; test: agar diffusion, inhibition halo; type: cell-based
Description: as §1, §2, §3

[4] = tested on: Geotrichum candidum CECT 1902; test: agar diffusion, inhibition halo; type: cell-based; details: in polyvinyl acetate emulsion, 2000 ppm
Description: as §1, §2, §3

[5] = tested on: Mucor plumbeus, isolated from cheese; test: agar diffusion, inhibition halo; type: cell-based; details: in polyvinyl acetate emulsion, 2000 ppm
Description: as §1, §2, §3

[6] = tested on: Penicillium funiculosum, CECT 2702; test: agar diffusion, inhibition halo; type: cell-based
Description: as §1, §2, §3

[7] = tested on: Penicillium sp, isolated from cheese; test: agar diffusion, inhibition halo; type: cell-based
Description: as §1, §2, §3

[8] = tested on: Pullularia pullulans, CECT 2657; test: agar diffusion, inhibition halo; type: cell-based
Description: as §1, §2, §3

[9] = tested on: Saccharomyces cerevisiae, CECT 1324; test: agar diffusion, inhibition halo; type: cell-based
Description: as §1, §2, §3

[10] = tested on: Trichoderma viride, CECT 2460; test: agar diffusion, inhibition halo; type: cell-based
Description: as §1, §2, §3

[11] = tested on: Bacillus cereus, CECT 1178; test: agar diffusion, inhibition halo; type: cell-based
Description: as §1
(§4) Antibacterial capacity was assessed against suspensions of 10^6 cells/ml, prepared from pure young cultures of each one of the strains to be tested. The culture medium used was Müller-Hinton medium (Merck).
as §3

[12] = tested on: Bacillus megaterium, ATCC 33085; test: agar diffusion, inhibition halo; type: cell-based
Description: as §1, §4, §3

[13] = tested on: Escherichia coli, CECT 515; test: agar diffusion, inhibition halo; type: cell-based
Description: as §1, §4, §3

[14] = tested on: Micrococcus luteus, isolated from a spiced sausage; test: agar diffusion, inhibition halo; type: cell-based
Description: as §1, §4, §3

[15] = tested on: Proteus vulgaris, ATCC 13315; test: agar diffusion, inhibition halo; type: cell-based
Description: as §1, §4, §3

[16] = tested on: Pseudomonas aeruginosa, ATCC 13925; test: agar diffusion, inhibition halo; type: cell-based
Description: as §1, §4, §3

[17] = tested on: Salmonella typhimurium, ATCC 13311; test: agar diffusion, inhibition halo; type: cell-based
Description: as §1, §4, §3

[18] = tested on: Staphylococcus aureus, isolated from hamburgers; test: agar diffusion, inhibition halo; type: cell-based
Description: as §1, §4, §3

[19] = tested on: Streptococcus faecalis, isolated from a spiced sausage; test: agar diffusion, inhibition halo; type: cell-based
Description: as §1, §4, §3

[20] = tested on: mold on the surface of the cheese; test: preservative activity on surface of cheese (PVA emulsion coating); details: fresh cheese, PVA emulsion with 2000 ppm pimaricin with 12000 ppm of potassium sorbate, diluted 1:1 with water, room temperature
Description: (§5) These tests were carried out according to the instructions for applying said commercial preparations on foods by immersion, such as spiced sausage, chorizo, cheese, etc. (see application examples), with different antimicrobial product doses.
The amounts of PTS and pimaricin with potassium sorbate (12000 ppm) as shown in the corresponding table are added to emulsions of 1 kg of PVA. Said preparations are diluted 1:1 with water and pieces of fresh cheese without surface treatment are submerged therein. Once the pieces are dry, each one is introduced into a sealed recipient and is left at room temperature. They are monitored, and the occurrence of mold on their surface is observed on the days herein set forth:
Amounts of complex in α-cyclodextrin (sample 2) and β-cyclodextrin (sample 3) are added to emulsions of 1 kg of PVA such that the amount of active ingredient, PTS, is 5000 ppm. On the other hand a sample (no. 1) is prepared with pimaricin (2000 ppm) and potassium sorbate (12000 ppm). The same process is followed as in the previous case upon applying the products and the samples are monitored, the occurrence of mold on the surface of the cheese being observed according to the following table: […]

mold = test: preserving activity on the surface of sausages (large intestine chorizo and spiced sausage); details: intestines submerged in a pimaricin solution at 500 ppm for 3 hours before stuffing
Description: as §5
Preparing sample 1: First a series of pig large intestines are submerged in a dispersion of pimaricin in water, 500 ppm, for three hours. Then two pieces are stuffed with 600 g each.
Then 4 other pieces are stuffed with 600 g each and are treated as follows: • Control sample: two pieces are left untreated. • Sample 2: Two pieces are submerged for 2 minutes in a dispersion of sucrose esters in water (10-40 g/kg of water), with a concentration of 3000 ppm of PTS.
All the pieces are subjected to drying between 24 and 26° C. and 90% relative humidity for 72 hours. Then they are hung and left to cure. The external appearance is monitored and the following results are obtained: […]

[21] = 250 ppm (second column headed 250)
[22] = in polyvinyl acetate emulsion, 2000 ppm

## C[C@@H]1C/C=C/C=C/C=C/C=C/[C@H](O[C@@H]2O[C@H](C)[C@@H](O)[C@H](N)[C@@H]2O)C[C@@H]2O[C@](O)(C[C@@H](O)C[C@H]3O[C@@H]3/C=C/C(=O)O1)C[C@H](O)[C@H]2C(=O)O [Pimaricin, pimaricin]
[1]; 62.5 ppm
  inhibition halo diameter: 19 mm
[1]; 250 ppm
  inhibition halo diameter: 19 mm
[1]; [21]
  inhibition halo diameter: 19 mm
[1]; 500 ppm
  inhibition halo diameter: 20 mm
[1]; 1000 ppm
  inhibition halo diameter: 20 mm
[1]; [22]
  inhibition halo diameter: 20 mm
[2]; 100 ppm
  inhibition halo diameter: 14 mm
[2]; 1000 ppm
  inhibition halo diameter: 15 mm
[3]; 62.5 ppm
  inhibition halo diameter: 10 mm
[3]; 250 ppm
  inhibition halo diameter: 12 mm
[3]; [21]
  inhibition halo diameter: 12 mm
[3]; 500 ppm
  inhibition halo diameter: 14 mm
[3]; 1000 ppm
  inhibition halo diameter: 16 mm
[4]
  inhibition halo diameter: 15 mm
[5]
  inhibition halo diameter: 13 mm
[6]; 62.5 ppm
  inhibition halo diameter: 10 mm
[6]; 250 ppm
  inhibition halo diameter: 11 mm
[6]; [21]
  inhibition halo diameter: 10 mm
[6]; 500 ppm
  inhibition halo diameter: 12 mm
[6]; 1000 ppm
  inhibition halo diameter: 12 mm
[7]; 100 ppm
  inhibition halo diameter: 24 mm
[7]; 1000 ppm
  inhibition halo diameter: 26 mm
[7]; [22]
  inhibition halo diameter: 18 mm
[8]; 62.5 ppm
  inhibition halo diameter: 24 mm
[8]; 250 ppm
  inhibition halo diameter: 28 mm
[8]; [21]
  inhibition halo diameter: 28 mm
[8]; 500 ppm
  inhibition halo diameter: 30 mm
[8]; 1000 ppm
  inhibition halo diameter: 23 mm
[9]; 100 ppm
  inhibition halo diameter: 26 mm
[9]; 1000 ppm
  inhibition halo diameter: 26 mm
[10]; 62.5 ppm
  inhibition halo diameter: 13 mm
[10]; 250 ppm
  inhibition halo diameter: 15 mm
[10]; [21]
  inhibition halo diameter: 14 mm
[10]; 500 ppm
  inhibition halo diameter: 16 mm
[10]; 1000 ppm
  inhibition halo diameter: 18 mm
[11]; 100 ppm
  inhibition halo diameter: 0 mm
[11]; 1000 ppm
  inhibition halo diameter: 0 mm
[12]; 62.5 ppm
  inhibition halo diameter: 0 mm
[12]; 250 ppm
  inhibition halo diameter: 0 mm
[12]; [21]
  inhibition halo diameter: 0 mm
[12]; 500 ppm
  inhibition halo diameter: 0 mm
[12]; 1000 ppm
  inhibition halo diameter: 0 mm
[13]; 62.5 ppm
  inhibition halo diameter: 0 mm
[13]; 250 ppm
  inhibition halo diameter: 0 mm
[13]; [21]
  inhibition halo diameter: 0 mm
[13]; 500 ppm
  inhibition halo diameter: 0 mm
[13]; 1000 ppm
  inhibition halo diameter: 0 mm
[14]; 100 ppm
  inhibition halo diameter: 0 mm
[14]; 1000 ppm
  inhibition halo diameter: 0 mm
[15]; 62.5 ppm
  inhibition halo diameter: 0 mm
[15]; 250 ppm
  inhibition halo diameter: 0 mm
[15]; [21]
  inhibition halo diameter: 0 mm
[15]; 500 ppm
  inhibition halo diameter: 0 mm
[15]; 1000 ppm
  inhibition halo diameter: 0 mm
[16]; 62.5 ppm
  inhibition halo diameter: 0 mm
[16]; 250 ppm
  inhibition halo diameter: 0 mm
[16]; [21]
  inhibition halo diameter: 0 mm
[16]; 500 ppm
  inhibition halo diameter: 0 mm
[16]; 1000 ppm
  inhibition halo diameter: 0 mm
[17]; 62.5 ppm
  inhibition halo diameter: 0 mm
[17]; 250 ppm
  inhibition halo diameter: 0 mm
[17]; [21]
  inhibition halo diameter: 0 mm
[17]; 500 ppm
  inhibition halo diameter: 0 mm
[17]; 1000 ppm
  inhibition halo diameter: 0 mm
[18]; 62.5 ppm
  inhibition halo diameter: 0 mm
[18]; 250 ppm
  inhibition halo diameter: 0 mm
[18]; [21]
  inhibition halo diameter: 0 mm
[18]; 500 ppm
  inhibition halo diameter: 0 mm
[18]; 1000 ppm
  inhibition halo diameter: 0 mm
[19]; 62.5 ppm
  inhibition halo diameter: 0 mm
[19]; 250 ppm
  inhibition halo diameter: 0 mm
[19]; [21]
  inhibition halo diameter: 0 mm
[19]; 500 ppm
  inhibition halo diameter: 0 mm
[19]; 1000 ppm
  inhibition halo diameter: 0 mm
[20]
  Visible occurrence of mold at: 10 to 15 days and 10 to 16 days
mold
  Visible occurrence of mold at: 6 days
